Measured values from patent publication US20210353683A1, “ADDITIVE FOR MEDIUM FOR PROMOTING PRODUCTION OF PARACRINE FACTOR” (NISSAN CHEMICAL CORPORATION, priority 2018, published 2021).

Columns and labels:
Type in all cases: cell-based
[1] = test system: Human bone marrow-derived mesenchymal stem cells (hMSC); assay: Paracrine factor release amount test 3: VEGF in culture supernatant by ELISA; settings: 5 μM for 48 hr, then 48 hr in compound-free medium, relative to 2D DMSO control
Description: (§1) Human bone marrow-derived mesenchymal stem cells (hMSC, manufactured by PromoCell) were precultured by a single layer culture method (2D) using Mesenchymal Stem Cell Growth Medium 2 (manufactured by PromoCell). hMSCs were suspended in the same medium. In three-dimensional culture method (3D), hMSCs were seeded at 5×10^5 cells/2 mL/well on a cell-non-adhesive 6-well EZSPHERE plate (manufactured by AGC TECHNO GLASS, #4810-900) having a depression on the bottom surface. In 2D, hMSCs were seeded on a 6-well flat bottom plate (manufactured by Corning Incorporated, #3516) at 5×10^5 cells/2 mL/well. Continuously, compounds k-1:B-1, k-1:D-1, k-1:J-1 dissolved in DMSO were added at 2 μL/well to a final concentration of 5 μM, and the mixture was cultured in an incubator at 37° C., 5% CO2 for 48 hr. As a control, DMSO was added at a final concentration of 0.05%. After 48 hr, the medium was exchanged with a medium not containing the compound, and the cells were cultured in an incubator at 37° C., 5% CO2. After 48 hr, the culture supernatant was recovered. The number of cells at the time of recovery of the culture supernatant was measured by dispersing the cells in single cells using Detach Kit (manufactured by PromoCell), suspending a part thereof in Trypan Blue (manufactured by Wako Pure Chemical Industries, Ltd.) and counting the number of viable cells using TC-20 (manufactured by BIO-RAD).
Vascular endothelial growth factor (VEGF), a cytokine which is one kind of paracrine factor contained in the culture supernatant, was quantified using a plate reader. For the quantification, Human VEGF ELISA Kit (manufactured by Abcam, #ab100662) was used.
(§2) The concentration of VEGF in the culture supernatant was normalized by the cell count, and the relative values for the control group cultured in 2D are shown in Table 7. As a result, the secretion amount increased in both 2D culture and 3D culture by adding compounds k-1:B-1, k-1:D-1, and compound k-1:J-1. Therefrom it was clarified that the secretion of the paracrine factor can be promoted by adding the compounds k-1:B-1, k-1:D-1, and compound k-1:J-1 to the mesenchymal stem cells.

[2] = test system: Human bone marrow-derived mesenchymal stem cells (hMSC); assay: Paracrine factor release amount test 2: Stanniocalcin-1 (STC-1) in culture supernatant by ELISA; settings: 5 μM for 48 hr, then 48 hr in compound-free medium, relative to 2D DMSO control
Description: as §1, with “Continuously, compound k-1:B-1” for “Continuously, compounds k-1:B-1, k-1:D-1, k-1:J-1”, “DMSO was” for “DMSO were”, “hr. […]” for “hr. As a control, DMSO was added at a final concentration of 0.05%. After 48 hr, the medium was exchanged with a medium not containing the compound, and the cells were cultured in an incubator at 37° C., 5% CO2. After 48 hr, the culture supernatant was recovered.”
Stanniocalcin-1 (STC-1), a cytokine which is one kind of paracrine factor contained in the culture supernatant, was quantified using a plate reader. For the quantification, Human Stanniocalcin ELISA Kit (manufactured by Abcam, #ab213829) was used. […]

[3] = test system: Human bone marrow-derived mesenchymal stem cells (hMSC); assay: Paracrine factor release amount test 1: Angiogenin (ANG) in culture supernatant by ELISA; settings: 5 μM for 48 hr, then 48 hr in compound-free medium, relative to 2D DMSO control
Description: as §1, with “cells/2” for “cells/2 mL/well.”
Angiogenin (ANG), a cytokine which is one kind of paracrine factor contained in the culture supernatant, was quantified using a plate reader. For the quantification, Human Angiogenin ELISA Kit (manufactured by Abcam, #ab99970) was used.
as §2, with “ANG” for “VEGF”, “4.” for “7.”

[4] = test system: Human bone marrow-derived mesenchymal stem cells (hMSC); assay: Paracrine factor release under inflammation stimulation (TNFα): TSG-6 in culture supernatant by ELISA; settings: 5 μM for 48 hr, then 48 hr with 10 ng/mL TNFα only, relative to 2D DMSO control
Description: as §1, with “Continuously, compound” for “Continuously, compounds k-1:B-1, k-1:D-1,”, “DMSO was” for “DMSO were”, “0.05%. […]” for “0.05%. After 48 hr, the medium was exchanged with a medium not containing the compound, and the cells were cultured in an incubator at 37° C., 5% CO2. After 48 hr, the culture supernatant was recovered.”
Tumor necrosis factor-inducible gene 6 protein (TSG-6), a cytokine which is one kind of paracrine factor contained in the culture supernatant, was quantified using a plate reader. […]

[5] = test system: Human bone marrow-derived mesenchymal stem cells (hMSC); assay: Paracrine factor release under inflammation stimulation (TNFα): MCP-1 in culture supernatant by flow cytometer; settings: 5 μM for 48 hr, then 48 hr with 10 ng/mL TNFα only, relative to 2D DMSO control
Description: as §1, with “Continuously, compounds k-1:B-1, k-1:D-1, k-1:J-1 dissolved in DMSO were added at 2 μL/well to a final concentration of 5 μM, and the mixture was cultured in an incubator at 37° C., 5% CO2 for 48 hr. As a control, DMSO was added at a final concentration of 0.05%. After 48 hr, the medium was exchanged with a medium not containing the compound, and the cells were cultured in an incubator at 37° C., 5% CO2. After 48 hr, the culture supernatant was recovered.” left out
Monocyte Chemotactic Protein-1 (MCP-1), a cytokine which is one kind of paracrine factor contained in the culture supernatant, was quantified using a flow cytometer. The quantification analysis was performed using BD™ CBA Flex Set (manufactured by BD 558287) according to the protocol of BD. […]

Structure (SMILES) | VEGF, relative value of secretion amount (pg) per 10000 cells ([1]; 2D culture) | VEGF, relative value of secretion amount (pg) per 10000 cells ([1]; 3D culture) | STC-1, relative value of secretion amount (pg) per 10000 cells ([2]; 2D culture) | STC-1, relative value of secretion amount (pg) per 10000 cells ([2]; 3D culture) | ANG, relative value of secretion amount (pg) per 10000 cells ([3]; 2D culture) | ANG, relative value of secretion amount (pg) per 10000 cells ([3]; 3D culture) | TSG-6, relative value of secretion amount (pg) per 10000 cells ([4]; 2D culture) | TSG-6, relative value of secretion amount (pg) per 10000 cells ([4]; 3D culture) | MCP-1, relative value of secretion amount (pg) per 10000 cells ([5]; 2D culture) | MCP-1, relative value of secretion amount (pg) per 10000 cells ([5]; 3D culture)
CCC(=NNC(=O)C(C)Nc1ccccc1)c1ccc(O)c(C)c1O (racemic) [k-1:B-1] | 4.40 | 3.59 | 2.67 | 8.95 | 1.34 | 1.38 | – | – | – | –
CCC(=NNC(=O)CNc1cccc(O)c1)c1ccc(O)c(C)c1O [k-1:D-1] | – | 3.27 | – | – | – | 1.50 | – | – | – | –
CCC(=NNC(=O)NCc1cccc(O)c1)c1ccc(O)c(C)c1O [k-1:J-1] | – | 6.18 | – | – | – | 1.38 | 1.56 | 3.21 | 0.85 | 1.41
